Data reported in the NIST ThermoML archive (doi:10.1016/j.fluid.2014.11.020).
Numbers after ± are expanded uncertainties.

Assay: activity coefficient (dimensionless); of the first substance listed, at infinite dilution; xn = mol fraction of the nth substance listed
Details: Liquid, Chromatography, x1 = 0

| Compound | activity coefficient (323.15 K) | activity coefficient (333.15 K) | activity coefficient (343.15 K) |
| --- | --- | --- | --- |
| CC(C)CO [2-methyl-1-propanol] + Cn1cc[n+](COCCCOC[n+]2ccn(C)c2)c1.N#C[N-]C#N.N#C[N-]C#N | 1.94 ± 0.13 | 1.81 ± 0.12 | 1.73 ± 0.12 |
| CC(C)CO [2-methyl-1-propanol] + Cn1cc[n+](COCCCOC[n+]2ccn(C)c2)c1.O=S(=O)([N-]S(=O)(=O)C(F)(F)F)C(F)(F)F.O=S(=O)([N-]S(=O)(=O)C(F)(F)F)C(F)(F)F | 1.87 ± 0.13 | 1.71 ± 0.11 | 1.5 ± 0.1 |
| CC(C)CO [2-methyl-1-propanol] + N#C[N-]C#N.N#C[N-]C#N.c1ccc(Cn2cc[n+](COCCCOC[n+]3ccn(Cc4ccccc4)c3)c2)cc1 | 1.79 ± 0.12 | 1.67 ± 0.11 | 1.61 ± 0.11 |
| CCC(C)CC [3-methylpentane] + CCCCCCCCn1cc[n+](COCCC)c1C.N#C[N-]C#N | 6.65 ± 0.45 | 5.7 ± 0.39 | 6.25 ± 0.43 |
| CCC(C)CC [3-methylpentane] + CCCCCCCCn1cc[n+](COCCC)c1C.O=S(=O)([N-]S(=O)(=O)C(F)(F)F)C(F)(F)F | 3.57 ± 0.24 | 3.42 ± 0.23 | 3.05 ± 0.21 |
| CCC(C)CC [3-methylpentane] + CCCCCCCCn1cc[n+](COCCCOC[n+]2ccn(CCCCCCCC)c2C)c1C.N#C[N-]C#N.N#C[N-]C#N | 3.48 ± 0.24 | – | – |
| CCC(C)CC [3-methylpentane] + CCCCCCCCn1cc[n+](COCCCOC[n+]2ccn(CCCCCCCC)c2C)c1C.O=S(=O)([N-]S(=O)(=O)C(F)(F)F)C(F)(F)F.O=S(=O)([N-]S(=O)(=O)C(F)(F)F)C(F)(F)F | 3.59 ± 0.24 | 3.36 ± 0.23 | 3.13 ± 0.21 |
| CCC(C)CC [3-methylpentane] + CCCOC[n+]1ccc(N(C)C)cc1.O=S(=O)([N-]S(=O)(=O)C(F)(F)F)C(F)(F)F | 9.61 ± 0.66 | 9.48 ± 0.65 | 9.24 ± 0.63 |
| CCC(C)CC [3-methylpentane] + CCCOC[n+]1ccn(C)c1.O=S(=O)([N-]S(=O)(=O)C(F)(F)F)C(F)(F)F | 14.4 ± 0.98 | 10.8 ± 0.74 | – |
| CCC(C)CC [3-methylpentane] + CCCOC[n+]1ccn(Cc2ccccc2)c1.N#C[N-]C#N | 28.5 ± 1.9 | – | – |
| CCC(C)CC [3-methylpentane] + CCCOC[n+]1ccn(Cc2ccccc2)c1.O=S(=O)([N-]S(=O)(=O)C(F)(F)F)C(F)(F)F | 8.01 ± 0.55 | 6.59 ± 0.45 | 5.91 ± 0.4 |
| CCC(C)CC [3-methylpentane] + Cn1cc[n+](COCCCOC[n+]2ccn(C)c2)c1.O=S(=O)([N-]S(=O)(=O)C(F)(F)F)C(F)(F)F.O=S(=O)([N-]S(=O)(=O)C(F)(F)F)C(F)(F)F | 39.2 ± 2.7 | 14.4 ± 1 | – |
| CC#N [acetonitrile] + CCCCCCCCn1cc[n+](COCCC)c1C.N#C[N-]C#N | 0.72 ± 0.05 | 0.7 ± 0.05 | 0.69 ± 0.05 |
| CC#N [acetonitrile] + CCCCCCCCn1cc[n+](COCCC)c1C.O=S(=O)([N-]S(=O)(=O)C(F)(F)F)C(F)(F)F | 0.48 ± 0.04 | 0.46 ± 0.04 | 0.47 ± 0.04 |
| CC#N [acetonitrile] + CCCCCCCCn1cc[n+](COCCCOC[n+]2ccn(CCCCCCCC)c2C)c1C.N#C[N-]C#N.N#C[N-]C#N | 0.46 ± 0.04 | 0.46 ± 0.04 | 0.45 ± 0.04 |
| CC#N [acetonitrile] + CCCCCCCCn1cc[n+](COCCCOC[n+]2ccn(CCCCCCCC)c2C)c1C.O=S(=O)([N-]S(=O)(=O)C(F)(F)F)C(F)(F)F.O=S(=O)([N-]S(=O)(=O)C(F)(F)F)C(F)(F)F | 0.26 ± 0.03 | 0.25 ± 0.03 | 0.25 ± 0.03 |

| Compound | activity coefficient (323.15 K) | activity coefficient (333.15 K) | activity coefficient (343.15 K) |
| --- | --- | --- | --- |
| CC#N [acetonitrile] + CCCOC[n+]1ccc(N(C)C)cc1.O=S(=O)([N-]S(=O)(=O)C(F)(F)F)C(F)(F)F | 0.51 ± 0.04 | 0.52 ± 0.04 | 0.52 ± 0.04 |
| CC#N [acetonitrile] + CCCOC[n+]1ccn(C)c1.F[B-](F)(F)F | 0.73 ± 0.05 | 0.74 ± 0.05 | 0.75 ± 0.05 |
| CC#N [acetonitrile] + CCCOC[n+]1ccn(C)c1.N#C[N-]C#N | 0.77 ± 0.05 | 0.78 ± 0.05 | 1.09 ± 0.07 |
| CC#N [acetonitrile] + CCCOC[n+]1ccn(C)c1.O=S(=O)([N-]S(=O)(=O)C(F)(F)F)C(F)(F)F | 0.46 ± 0.04 | 0.46 ± 0.04 | 0.46 ± 0.04 |
| CC#N [acetonitrile] + CCCOC[n+]1ccn(Cc2ccccc2)c1.F[B-](F)(F)F | 0.63 ± 0.04 | 0.63 ± 0.04 | 0.63 ± 0.04 |
| CC#N [acetonitrile] + CCCOC[n+]1ccn(Cc2ccccc2)c1.N#C[N-]C#N | 0.72 ± 0.05 | 0.76 ± 0.05 | 0.77 ± 0.05 |
| CC#N [acetonitrile] + CCCOC[n+]1ccn(Cc2ccccc2)c1.O=S(=O)([N-]S(=O)(=O)C(F)(F)F)C(F)(F)F | 0.39 ± 0.03 | 0.34 ± 0.03 | 0.34 ± 0.03 |
| CC#N [acetonitrile] + CN(C)c1cc[n+](COCCCOC[n+]2ccc(N(C)C)cc2)cc1.O=S(=O)([N-]S(=O)(=O)C(F)(F)F)C(F)(F)F.O=S(=O)([N-]S(=O)(=O)C(F)(F)F)C(F)(F)F | 0.37 ± 0.03 | 0.37 ± 0.03 | 0.37 ± 0.03 |
| CC#N [acetonitrile] + Cn1cc[n+](COCCCOC[n+]2ccn(C)c2)c1.N#C[N-]C#N.N#C[N-]C#N | 0.68 ± 0.05 | 0.68 ± 0.05 | 0.69 ± 0.05 |
| CC#N [acetonitrile] + Cn1cc[n+](COCCCOC[n+]2ccn(C)c2)c1.O=S(=O)([N-]S(=O)(=O)C(F)(F)F)C(F)(F)F.O=S(=O)([N-]S(=O)(=O)C(F)(F)F)C(F)(F)F | 0.28 ± 0.03 | 0.28 ± 0.03 | 0.24 ± 0.03 |
| CC#N [acetonitrile] + N#C[N-]C#N.N#C[N-]C#N.c1ccc(Cn2cc[n+](COCCCOC[n+]3ccn(Cc4ccccc4)c3)c2)cc1 | 0.99 ± 0.06 | 0.97 ± 0.06 | 0.98 ± 0.06 |
| c1ccccc1 [benzene] + CCCCCCCCn1cc[n+](COCCC)c1C.N#C[N-]C#N | 1.39 ± 0.09 | 1.23 ± 0.08 | 1.07 ± 0.07 |
| c1ccccc1 [benzene] + CCCCCCCCn1cc[n+](COCCC)c1C.O=S(=O)([N-]S(=O)(=O)C(F)(F)F)C(F)(F)F | 0.6 ± 0.04 | 0.59 ± 0.04 | 0.59 ± 0.04 |
| c1ccccc1 [benzene] + CCCCCCCCn1cc[n+](COCCCOC[n+]2ccn(CCCCCCCC)c2C)c1C.N#C[N-]C#N.N#C[N-]C#N | 0.7 ± 0.05 | 0.71 ± 0.05 | 0.71 ± 0.05 |
| c1ccccc1 [benzene] + CCCCCCCCn1cc[n+](COCCCOC[n+]2ccn(CCCCCCCC)c2C)c1C.O=S(=O)([N-]S(=O)(=O)C(F)(F)F)C(F)(F)F.O=S(=O)([N-]S(=O)(=O)C(F)(F)F)C(F)(F)F | 0.42 ± 0.04 | 0.41 ± 0.03 | 0.41 ± 0.03 |
| c1ccccc1 [benzene] + CCCOC[n+]1ccc(N(C)C)cc1.O=S(=O)([N-]S(=O)(=O)C(F)(F)F)C(F)(F)F | 0.74 ± 0.05 | 0.78 ± 0.05 | 0.78 ± 0.05 |
